Reference: patent US9023810B2, “Use of a compound comprising D-mannoheptulose and/or perseitol for treating and preventing innate immunity modification diseases” (Laboratories Expanscience, priority 2004, dated 2015)
Several values for one entry are separate records, joined by “and”; a condition that tells them apart may be missing. Equal values may be shown once.

Tests used:
[1] = tested on: hBD-2; assay: Induction of hBD-2 in normal human keratinocytes, ELISA on cells related to MTT (Examples 3, 6, 7); type: cell-based; conditions: for production of hBD-2 (in words): Example 7, tested separately, commercial origin; for Modulation of the synthesis of HBD-2 (% increase with respect to control cells): proportions corresponding to 1% of a 5% solution of MS of batch A, i.e. 0.05% MS
Method: The keratinocytes of normal humans were inoculated in a 96 well plaque (about 20000 cells/well), in the presence of a specific medium enriched in calcium (final concentration 1.3 mM), as previously described in the publication “Human β-Defensin-2 production in Keratinocytes is regulated by Interleukin-1, Bacteria, and the State of Differentiation”, Alice Y. Liu et al., The Society for Investigative Dermatology, vol. 118, No. 2, February 2002, pages 275 to 281.
After an incubation of 24 hours at 37° C., 5% CO2: • 2 rinses with 200 μl/well of PBS (phosphate buffer in saline solution) • stimulation of the cells by 200 μl/well (in a Ca^++ supplemented medium): • by the hydrosoluble extract of sugars of avocado at concentrations of 0.5, 0.05 and 0.005 w/w of dry matter • by IL-1β at a concentration of 100 ng/ml (positive control of induction of hBD-2) III. End of Treatment (J2): ELISA
After 24 hours of incubation, the induction of the hBD-2 was evaluated by an ELISA method with a specific antibody (goat polyclonal to human BD2; Abcam; ab9871). The results obtained with the hydrosoluble extract of sugars of avocado, batch A, comprising 40% of D-mannoheptulose and 40% perseitol, based on the dry weight, are summarised in Table 8 below:
The same test as in example 3 was carried out with: • a mixture of fructose (5%), glucose (5%) and saccharose (3%); • D-mannoheptulose (40%); • perseitol (40%); • a mixture of fructose (5%), glucose (5%) saccharose (3%) and D-mannoheptulose (40%); • a mixture of fructose (5%), glucose (5%) saccharose (3%) and perseitol (40%); • a mixture of fructose (5%), glucose (5%) saccharose (3%) D-mannoheptulose (40%) and perseitol (40%); and • an extract of avocado sugars (batch A).
The same test as in example 3 was carried out with commercially available D-mannoheptulose and perseitol.

[2] = tested on: tumorous cells of Ehrlich ascites sarcoma; conditions: perseitol associated with a potassium ion; cited from earlier work
[3] = tested on: hBD-2; assay: Expression of hBD-2 modulated by IL-4 in keratinocytes, in vitro modelling of atopic dermatitis; type: cell-based, human
Method: The keratinocytes of normal humans were inoculated as described in example 3.
After 24 hours of incubation at 37° C., 5% of CO2, the culture medium was eliminated and the cellular carpet was rinsed twice with PBS. The cells were then treated for 24 hours under the conditions defined below: • Control cells: medium only • IL-1β at 100 ng/ml (positive control for induction of hBD-2) • IL-4 at 50 ng/ml • Hydrosoluble extract of sugars of avocado (batch A) at 0.5% w/w of dry matter • IL-1β at 100 ng/ml and IL-4 at 50 ng/ml • IL-4 at 50 ng/ml and hydrosoluble extract of sugars of avocado (batch A) at 0.05% w/w of dry matter • IL-1β at 100 ng/ml and IL-4 at 50 ng/ml and hydrosoluble extract of sugars of avocado (batch A) at 0.05% w/w of dry matter
At the end of the treatment, the induction of hBD-2 was evaluated by an ELISA method on cells; in parallel, in order to determine the total number of cells in each well, a test with MTT was run in parallel on the cells treated under the same conditions. Thus, for each condition, the OD450 hBD-2 was divided by the OD570 MTT to obtain the quantity of hBD-2 produced per living cell.

[4] = tested on: hBD-2; assay: Induction of hBD-2 in KB epithelial cells, ELISA on cells related to MTT; type: cell-based, human; conditions: 48 hours, 100 ng/ml
Method: (§1) The cells KB (ATCC CCL-17), line of epithelial cells from a human oral carcinoma, commonly used in studies of the buccal cavity, were inoculated in plaques of 96 wells and cultivated in RPMI 1640 (Roswell Park Memorial Institute Medium) with Glutamax™1 at 10% VFS (veal fœtal serum)+antibiotics.
(§2) After 24 hours of incubation, the culture medium was eliminated and the cellular carpet was rinsed twice with PBS.
(§3) The cells were then treated under the conditions defined above during 24 and 48 hours: • Control cells: medium only • TNFα (commercialised by Sigma) at 100 ng/ml • hydrosoluble extract of sugars of avocado (40% mannoheptulose/40% perseitol) at 0.005-0.05 and 0.5 w/w (of dry matter) (batch A) 3. End of Treatment • Analysis of the antimicrobial peptides by ELISA on cells
After 48 hours of incubation under the different treatment conditions, the β-defensins 2 and 3 and the LL-present in the cells KB were analysed by an ELISA method on cells. […]
(§4) For each condition of treatment, the OD450 AMPs (antimicrobial peptides) was divided by the OD570 MTT to calculate the quantity of AMPs produced per living cell.
(§5) The averages and the standard deviations were calculated for each condition and the induction of different AMPS was calculated as the percentage increase with respect to the control cells.

[5] = tested on: hBD-3; assay: Induction of hBD-3 in KB epithelial cells, ELISA on cells related to MTT; type: cell-based, human; conditions: 48 hours, 100 ng/ml
Method: as §1, §2, §3
(§6) After 48 hours of incubation under the different treatment conditions, the β-defensins 2 and 3 and the LL-present in the cells KB were analysed by an ELISA method on cells.
(§7) In order to determine the total number of cells in each well, a test with MTT was run in parallel on the cells treated under the same conditions. • Utilisation of the results
as §4, §5

[6] = tested on: LL-37; assay: Induction of LL-37 in KB epithelial cells, ELISA on cells related to MTT; type: cell-based, human; conditions: 48 hours, 100 ng/ml
Method: as §1, §2, §3, §6, §7, §4, §5

[7] = Example 7, commercial origin, 0.0012%
[8] = Example 7, commercial origin, 0.012%

## O=C(CO)[C@@H](O)[C@@H](O)[C@H](O)[C@H](O)CO [D-mannoheptulose]
[1]; Example 6, sugars in the proportions of batch A
  effect on the synthesis of HBD-2 (in words): more active than the perseitol
[1]; [7]
  Average (hBD-2, same test as in example 3): 0.089
[1]; [8]
  Average (hBD-2, same test as in example 3): 0.089
[1]
  production of hBD-2 (in words): capable of inducing the production of hBD-2
  Modulation of the synthesis of HBD-2 (% increase with respect to control cells): 31%

## OCC(O)C(O)C(O)C(O)C(O)CO (stereo not drawn) [Perseitol]
[1]; [7]
  Average (hBD-2, same test as in example 3): 0.063
[1]; [8]
  Average (hBD-2, same test as in example 3): 0.090
[1]
  production of hBD-2 (in words): capable of inducing the production of hBD-2
  Modulation of the synthesis of HBD-2 (% increase with respect to control cells): 12%
[2]
  incorporation of leucine-3H into tumorous cells (in words): enables leucine-3H to be incorporated

## IL-4: interleukine-4, mediator of atopy, 50 ng/ml
[3]; 24 hours, IL-4 50 ng/ml
  hBD-2/MTT (single values): 0.160 OD and 0.158 OD and 0.163 OD
  hBD-2/MTT Average: 0.160 +/− 0.002 OD
[3]; IL-4 50 ng/ml with IL-1β 100 ng/ml
  inhibition of the synthesis of hBD-2 induced by IL-1β: 32%
[3]; IL-4 alone, 50 ng/ml
  influence on the quantity of hBD-2 expressed by the keratinocytes (in words): no influence

## IL-1β: positive control of induction of hBD-2, 100 ng/ml
[1]; Example 7, positive control
  Average (hBD-2, same test as in example 3): 0.104
[1]; keratinocytes, 24 h, 100 ng/ml
  % increase vs. control: 128%
  hBD-2/MTT (single values): 0.223 OD and 0.324 OD and 0.273 OD and 0.322 OD
[3]; 24 hours, IL-1β 100 ng/ml
  hBD-2/MTT (single values): 0.291 OD and 0.308 OD and 0.347 OD
[3]; IL-1β 100 ng/ml
  increase in the synthesis of hBD-2 with respect to the control cells: 80%

## TNFα
[4]
  Induction of HBD-2 % increase: 239%
  OD hBD2/OD MTT average: 0.037
[5]
  Induction of HBD-3 % increase: 30%
  OD hBD3/OD MTT (wells): 0.431 and 0.448 and 0.399 and 0.407 and 0.374
  OD hBD3/OD MTT average: 0.410
[6]
  Induction of LL-37 % increase: 88%
  OD LL-37/OD MTT (wells): 0.080 and 0.072 and 0.077 and 0.091 and 0.082 and 0.076
  OD LL-37/OD MTT average: 0.080
